In this assay the target is T1, human histamine H3 receptor (Homo sapiens, UniProt Q9Y5N1).
T1 construct: endogenous in cells; host or cells: HT1080-Gqαi5 RAGE clone (RAGE-H3), human fibrosarcoma line; integrated RAGE vector pFG8-HH3 supplies exon 1, the cell's own gene supplies the other exons
The experiment in a line: Competition radioligand binding assay with [125I]iodoproxyfan on membranes of RAGE-H3 (HT1080-Gqαi5) cells expressing human H3 receptor. The note with it: ~0.15 nM [125I]iodoproxyfan, 1.5 hrs at room temperature, head does not name the quantity (apparent Ki by Cheng-Prussof). As for the experimental part:
Representative compounds of the present invention that were prepared by the procedures of Examples 1-83 were evaluated in binding assays against cells expressing human H3 receptor by the following procedure.
[^125I]iodoproxyfan (2000 Ci/mmol) was obtained from Amersham Bioscience (Piscataway, N.J.). All other chemicals were either from Sigma-Aldrich (St. Louis, Mo.) or Tocris Cookson Inc. (Ellisville, Mo.).
The human histamine H3 receptor was stably expressed in HT1080 cells containing the chimeric G-protein, Gq[…]i5 (Coward et al., Anal Biochem 1999; 270:242-8). HT1080-Gqαi5 cells were grown in alpha-modified MEM containing 10% fetal bovine serum and 7 μg/ml blasticidin at 37° C. in 5% CO2/95% atmosphere. Cells (4.8×10^9) were irradiated with 50 rads from a ^137Cs source and the pFG8-HH3 RAGE (Random Activation of Gene Expression; see Harrington et al., Nature Biotechnology. 2001; 19:440-45) vector was subsequently integrated into the cells via electroporation (250V, 600 μF, 50Ω). The RAGE vector pFG8-HH3 contained cDNA sequence coding for the first exon (83 amino acids) of human H3 receptor. After electroporation, cells were plated in T75 flasks and grown in alpha-modified MEM. The culture medium was replaced 48 hrs after electroporation with alpha-modified MEM, 10% fetal bovine serum, 500 μg/ml hygromycin B and 3 μg/ml puromycin. Medium was replaced every four days during cell expansion. To identify RAGE activated cells expressing the H3 receptor, pools of approximately 10,000 colonies (5×10^7-1.5×10^8 cells total) were screened by PCR for the desired gene product (using primers specific to the RAGE vector and exon 2 of the H3 receptor). […] Positive 100 cells/well pools were identified by PCR, confirmed by sequencing, and subsequently subcloned to 0.8 cells/well. Once clones expressing the H3 receptor were identified by PCR analysis, assays (FLIPR or radioligand binding) were performed to confirm that the activated gene produced functional protein. The protein expression in the initial clones obtained from the RAGE library was increased by growth in the presence of methotrexate. Since the integrated RAGE vector contains the DHFR gene, such treatment selects for cells that have amplified the genetic locus containing the RAGE insert. Subclones obtained after methotrexate amplification were tested for functional activity in FLIPR assays to identify the clone that was most suitable for HTS. The final HT1080-Gqαi5 RAGE clone (RAGE-H3) expressing the human histamine H3 receptor was grown in alpha-modified MEM containing 10% fetal bovine serum, 3 μg/ml puromycin, 500 μg/ml hygromycin B, 3.2 μM methotrexate at 37° C. in 5% CO2/95% atmosphere.
RAGE-H3 cells (10^9) were washed twice with cold PBS, scraped off the plates, and centrifuged at 1000×g for 5 minutes. Cells were resuspended in ice-cold 10 mM Tris HCl, pH 7.4, containing 5 mM EDTA and protease inhibitor cocktail tablets (Roche Molecular Biochemicals). After incubating on ice for 10 min, the cells were homogenized with a dounce homogenizer or a polytron tissue grinder, and centrifuged at 1000×g for 10 min at 4° C. The resulting supernatant was centrifuged at 32,000×g for 30 min at 4° C. The membrane pellets were resuspended in 50 mM Tris HCl, pH 7.4, and stored at −80° C. until use. Protein concentration was determined by the Bradford method (Bio-Rad Laboratories, CA).
Binding assays were carried out in 96-well polypropylene plates in 50 mM Tris HCl, pH 7.4, containing 1 mM EDTA. Reaction mixtures contained 100 μl of membrane suspension, 50 μl of 4% DMSO, and 50 μl of increasing amounts of [^125I]iodoproxyfan (final concentration 0.0005-1.8 nM for human H3 receptor saturation binding assay). Nonspecific binding was defined by adding 10 μM clobenpropit to the reaction mixtures. […]

T1 sequence (Q9Y5N1 whole entry): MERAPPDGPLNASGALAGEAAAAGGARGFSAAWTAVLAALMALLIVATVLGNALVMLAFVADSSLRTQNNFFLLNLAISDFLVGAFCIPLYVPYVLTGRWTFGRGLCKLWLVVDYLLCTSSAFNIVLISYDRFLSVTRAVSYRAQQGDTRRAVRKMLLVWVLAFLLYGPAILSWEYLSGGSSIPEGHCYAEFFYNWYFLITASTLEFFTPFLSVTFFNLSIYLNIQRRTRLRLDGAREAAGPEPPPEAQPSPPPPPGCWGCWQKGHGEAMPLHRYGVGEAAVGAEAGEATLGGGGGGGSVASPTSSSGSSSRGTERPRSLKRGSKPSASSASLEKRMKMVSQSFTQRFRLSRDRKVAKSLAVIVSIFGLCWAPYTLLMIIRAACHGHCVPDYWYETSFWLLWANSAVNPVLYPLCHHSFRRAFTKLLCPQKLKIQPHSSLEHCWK

Consider `Cc1cc(C(=O)NCC2CCCCC2)n(-c2ccc(OCCCN3CCCC3)cc2)n1` [Example 79, 5-Methyl-2-[4-(3-pyrrolidin-1-ylpropoxy)phenyl]-2H-pyrazole-3-carboxylic acid cyclohexylmethylamide], for which the Ki is below 1 nM.

Turning to `Cc1cc(C(=O)NC2CCC2)n(-c2ccc(OCCCN3CCCC3)cc2)n1` [Example 80, 5-Methyl-2-[4-(3-pyrrolidin-1-ylpropoxy)phenyl]-2H-pyrazole-3-carboxylic acid cyclobutylamide], the Ki is below 1 nM.

For the compound `Cc1cc(C(=O)Nc2ccccc2)n(-c2ccc(OCCCN3CCCC3)cc2)n1` [Example 81, 5-Methyl-2-[4-(3-pyrrolidin-1-ylpropoxy)phenyl]-2H-pyrazole-3-carboxylic acid phenylamide], the Ki is below 1 nM.

Regarding `Cc1cc(C(=O)NC2CCCCC2)n(-c2ccc(OCC3CCCN4CCCCC34)cc2)n1` (centres unmarked) [Example 82, 5-Methyl-2-[4-(octahydroquinolizin-1-ylmethoxy)phenyl]-2H-pyrazole-3-carboxylic acid cyclohexylamide], the Ki was above 10000 nM.

Take `Cc1cc(C(=O)NC2CCCCC2)nn1-c1ccc(OCCCN2CCCC2)cc1` [Example 83, 5-Methyl-1-[4-(3-pyrrolidin-1-ylpropoxy)phenyl]-1H-pyrazole-3-carboxylic acid cyclohexylamide]: the Ki was below 10 nM.

The values above are taken from US7981896B2 (Athersys, Inc., priority 2006, dated 2011).
